Test results taken from patent publication US20240208963A1, “CRYSTALLINE MELANOCORTIN SUBTYPE-2 RECEPTOR (MC2R) ANTAGONIST” (Crinetics Pharmaceuticals, Inc., priority 2022, published 2024).
Values after ≈ are worked out from the molar mass of the structure shown. “Also recorded” adds a separate entry of the source. Structures can show the parent of a compound that is named as a salt. Where two headings read alike, the source gives them in different places. Marks after values point to notes of the source that are not given here.

Experiments:
[1] = Salt screening XRPD stages: drying and overnight humidity exposure; settings: for Form stability upon drying (XRPD): dried under vacuum at 50° C. for at least 3 h
Description: XRPD analysis is typically done in three stages: 1) Wet: XRPD of the wet cake is done for all samples whenever solids appropriate for sampling were observed. 2) Dry: Unique solids are then left on XRPD plates and dried under vacuum at 50° C. for at least 3 h. XRPD of unique dry solids are then collected. 3) Humid: Solids are then exposed to >95% relative humidity overnight and XRPD on resulting solids is collected. The humid environment is generated by placing a beaker of saturated potassium sulfate in water in a sealed container. This procedure is not carried out for any amorphous solids obtained. All XRPD patterns are compared to counter ion XRPD patterns and known free molecule patterns.
A qualitive humidity exposure test was performed by exposing approximately 10 mg of the maleate to 80% RH overnight.

[2] = Solubility of solid state forms in solvents (gravimetric or solvent addition); format: physicochemical
Description: The solubility of certain solid state forms of Compound I was determined in various solvents by either gravimetric solubility or solvent addition.
About 25 mg of compound was weighed into vials. Approximately 5 vol. (0.125 mL) of solvent was added to the solids and the mixtures stirred at the designated temperature (RT or 50° C.). Solutions were noted and an additional 0.125 mL of solvent was added to the slurries. […] If a thicker slurry was noted, 0.25 mL of solvent was added (total volume 0.5 mL). If a thick slurry was again noted, an additional 0.25 mL of solvent was added (total volume 0.75 mL). After stirring for 2 days, the slurries were centrifuged, the supernatant was collected into preweighed vials, and the solvent evaporated at 50° C. (ambient pressure) without stirring. The vials containing the solid residues were dried in a vacuum oven at 50 C, 10^−2-10^−1 Torr, for 3 h before weighing again to determine the mass of solid that was dissolved in the supernatant (i.e. mg solid/mL solvent).
About 20 mg of compound was weighed into vials. Solvent was added in aliquots and stirred at the designated temperature until complete dissolution was observed. This measurement gave a solubility range.

[3] = Solubility in simulated fluids and water; format: physicochemical; settings: 37° C., 30 min
Description: Calibration samples for solubility in simulated fluids were prepared with freebase Compound I.
Solubility in simulated fluids were studied with the mandelate and maleate solids. The simulated fluids FaSSIF (fasted-state intestinal), FaSSGF (fasted-state gastric), and FeSSIF (fed-state intestinal) were removed from the refrigerator, warmed to room temperature, and the pH of each was measured. Between 1.9 and 2.0 mg of each salt was weighed into four vials and 1 mL of each fluid was added, including water. Stir bars (10 mm) were added to the vials and the vials were stirred at 37° C. After 30 mi (mandelate samples) or 1 h (maleate samples), the pH of each solution was measured, then 400 μL of each was removed and syringe filtered with 0.45 µm syringe filters. Approximately 300 μL of the recovered filtrate was diluted 5× with diluent and injected for HPLC analysis. The remainder of the samples in the vials were allowed to stir overnight. After 24 h stirring at 37° C., samples were filtered and diluted as before, and injected for analysis.

[4] = Stability of crystalline forms at 40° C. and 75% relative humidity (XRPD, HPLC purity)
Description: Approximately 10 mg of the Crystalline Pattern D of Compound I Maleate, 20 mg of the Crystalline Pattern C of Compound I Maleate, and 10 mg of the Crystalline Pattern E of Compound I Mandelate were weighed into open 4 mL vials that were placed into a 20 mL vial containing a saturated NaCl solution. The vial was sealed and kept at 40° C. for 7 days, creating an atmosphere at 75% relative humidity in the system. After 7 days, the materials were sampled and plated for XRPD analysis.
The stability test was repeated on Patterns C and D of Compound I Maleate for 11 days.

[5] = Dynamic vapor sorption (DVS); format: physicochemical
Description: DVS was performed using a DVS Intrinsic 1. The sample (20-25 mg) was loaded into a sample pan, suspended from a microbalance and exposed to a humidified stream of nitrogen gas. The sample was held for a minimum of 5 min at each level and only progressed to the next humidity level if there was <0.002% change in weight between measurements (interval: 60 s) or 240 min had elapsed. The following program was used: • 1. Equilibration at 50% RH • 2. 50% to 2%. (50%, 40%, 30%, 20%, 10%, and 2%) • 3. 2% to 95% (2%, 10%, 20%, 30%, 40%, 50%, 60%, 70%, 80%, 90%, and 95%) • 4. 95% to 2% (95%, 80%, 70%, 60%, 50%, 40%, 30%, 20%, 10%, and 2%) • 5. 2% to 50% (2%, 10%, 20%, 30%, 40%, and 50%)

[6] = Form stability at ambient conditions for one week (XRPD); format: physicochemical; settings: maleate
Source text: Some of the samples generated in the antisolvent crystallization experiments were mixtures of Pattern B, Pattern C, and Pattern D. These samples were left at ambient conditions for one week, then analyzed again by XRPD.
Pure Pattern B was generated in the antisolvent crystallization with MIBK and heptane. […] The solids were scraped from the XRPD plate and used for simultaneous TGA/DSC analysis. […] After the solids required for the TGA/DSC analysis were transferred to the pan, the remainder of the solids were re-pressed to the XRPD sample plate and analyzed again.

[7] = 40° C., 75% relative humidity, 7 days

CCOc1ccccc1-c1ccc(N2CCN(C(=O)C3(C(F)(F)F)CCC3)C[C@H]2CC)c(C(=O)N[C@@H]2CN3CCC2CC3)n1 [Compound I Maleate, N-[(3S)-1-azabicyclo[2.2.2]octan-3-yl]-6-(2-ethoxyphenyl)-3-[(2R)-2-ethyl-4-[1-(trifluoromethyl)-cyclobutanecarbonyl]piperazin-1-yl]pyridine-2-carboxamide maleate]
Mass gain in qualitative humidity exposure test ([1]; 80% RH overnight, approximately 10 mg): No detectable mass gain | solubility ([2]; EtOAc, 50° C., maleate): 34 mg/mL | solubility ([2]; EtOAc, RT, maleate): 21 mg/mL | solubility ([2]; EtOH, RT, maleate): >200 mg/mL | solubility ([2]; IPAc, 50° C., maleate): 13 mg/mL | solubility ([2]; IPAc, RT, maleate): 8 mg/mL | solubility ([2]; MEK, RT, maleate): >200 mg/mL | solubility ([2]; MIBK, 50° C., maleate): 71 mg/mL | solubility ([2]; MIBK, RT, maleate): 49 mg/mL | solubility ([2]; MeOH, RT, maleate): >200 mg/mL | solubility ([2]; MtBE, 50° C., maleate): 4 mg/mL | solubility ([2]; MtBE, RT, maleate): 4 mg/mL | solubility ([2]; THF, RT, maleate): >200 mg/mL | solubility ([2]; acetone, RT, maleate): >200 mg/mL | solubility ([2]; cyclohexane, 50 °C, organic solvent or mixture, thermodynamic from solid, cyclohexane, 50° C., read-out: Solubility): 3 mg/mL | solubility ([2]; cyclohexane, organic solvent or mixture, thermodynamic from solid, cyclohexane, RT, read-out: Solubility): < 3 mg/mL | solubility ([2]; n-heptane, 50° C., maleate): 3 mg/mL | solubility ([2]; n-heptane, RT, maleate): <3 mg/mL

N-[(3S)-1-azabicyclo[2.2.2]octan-3-yl]-6-(2-ethoxyphenyl)-3-[(2R)-2-ethyl-4-[1-(trifluoromethyl)-cyclobutanecarbonyl]piperazin-1-yl]pyridine-2-carboxamide mandelate [mandelate Pattern E]
Sample pH ([3]; FaSSGF (initial pH 1.49)): 1.53 | Sample pH ([3]; FaSSIF (initial pH 6.35)): 6.41 | Sample pH ([3]; FeSSIF (initial pH 4.83)): 4.89 | Stability after humidity exposure (XRPD, deliquescence) ([1]; >90% relative humidity overnight): no deliquescence or loss of crystallinity | Form stability upon drying (XRPD) [1]: stable | Change by XRPD after storage [4, 7]: No visible change | Degradation by HPLC purity analysis after storage [4, 7]: no degradation | Stability on storage (in words) ([4]; over a week at 40° C. and 75% RH): stable | Hygroscopicity (in words) ([5]; DVS): moderately hygroscopic | Change by XRPD following the DVS analysis ([5]; after DVS from 2 to 95% RH): No change | Reversible mass gain (DVS) ([5]; from 2 to 95% relative humidity): 5.68 wt. % | Behaviour at high humidity ([5]; high humidity): began to convert to amorphous

CCOc1ccccc1-c1ccc(N2CCN(C(=O)C3(C(F)(F)F)CCC3)C[C@H]2CC)c(C(=O)N[C@@H]2CN3CCC2CC3)n1 [Compound I, N-[(3S)-1-azabicyclo[2.2.2]octan-3-yl]-6-(2-ethoxyphenyl)-3-[(2R)-2-ethyl-4-[1-(trifluoromethyl)-cyclobutanecarbonyl]piperazin-1-yl]pyridine-2-carboxamide]
solubility ([2]; EtOAc, RT, listed as Amorphous free base): >500^a mg/mL | solubility ([2]; EtOH, RT, listed as Amorphous free base): >500^a mg/mL | solubility ([2]; IPA:water (1:1 vol.), aqueous with cosolvent or surfactant or cyclodextrin, thermodynamic from solid, IPA:water (1:1 vol.), RT, read-out: Solubility): 167 to 250 mg/mL (≈ 272 to 407 mM) | solubility ([2]; MIBK, RT, listed as Amorphous free base): >500^a mg/mL | solubility ([2]; MtBE, RT, listed as Amorphous free base): >500^a mg/mL | solubility ([2]; acetone, RT, listed as Amorphous free base): >500^a mg/mL | Solubility (in words) ([2]; all solvents tested except heptane and IPA:water (1:1 vol.)): freely soluble | Solubility (in words) ([2]; heptane): low solubility | solubility ([2]; n-heptane, RT, listed as Amorphous free base): <26 mg/mL | solubility ([2]; toluene, organic solvent or mixture, thermodynamic from solid, toluene, RT, read-out: Solubility): > 500 mg/mL

CCOc1ccccc1-c1ccc(N2CCN(C(=O)C3(C(F)(F)F)CCC3)C[C@H]2CC)c(C(=O)N[C@@H]2CN3CCC2CC3)n1.O=C(O)/C=C\C(=O)O [Pattern B, N-[(3S)-1-azabicyclo[2.2.2]octan-3-yl]-6-(2-ethoxyphenyl)-3-[(2R)-2-ethyl-4-[1-(trifluoromethyl)-cyclobutanecarbonyl]piperazin-1-yl]pyridine-2-carboxamide maleate]
Form stability upon drying (XRPD) [1]: mostly converts to Pattern C | Form conversion by XRPD at ambient conditions [6]: converted to Pattern C; also recorded: some low intensity peaks associated with Pattern C
